Measurements as given in patent US8410278B2, “Method for preparing a non-hydratable crystal form” (E I du Pont de Nemours and Company, priority 2008, dated 2013).

Assays:
[1] = Water uptake/loss on exposure to variations in atmospheric humidity; format: physicochemical
From the text: (§1) A method has now been discovered for the preparation of a non-hydratable polymorph of Compound 1 (Polymorph A) from a hydratable polymorph of Compound 1 (Polymorph B) that typically is initially formed by procedures for preparing Compound 1. […] This surprising stability facilitates a more consistent assay of Compound 1. These characteristics also make Polymorph A of Compound 1 well suited for the production of long-lasting stable solid formulations, enabling specifying a stable active ingredient content.

[2] = Crystal form stability during long-term storage; format: physicochemical
From the text: as §1

[3] = format: physicochemical
From the text: Remarkably water is now discovered to work very well as a solvent in the heated liquid phase for converting Polymorph B to Polymorph A. This is particularly unexpected, because Polymorph B, which can accommodate significant amounts of water in its crystal lattice, can be anticipated to be favored over anhydrous Polymorph A in an aqueous medium. Nevertheless, water is now found to be particularly suitable in forming the liquid phase for conversion of Polymorph B to Polymorph A. Conversion proceeds to near 100% completion and in high yields within commercially convenient time periods at temperatures not exceeding about 100° C. (i.e. the normal boiling point of water). […] Alternatively if Polymorph A is in high concentration in water, Polymorph A can be isolated by evaporation of the water.

| SMILES | Change of water content on exposure to variations in atmospheric humidity [1] | Conversion to Polymorph B during long-term storage [2] | Solubility in water [3] |
| --- | --- | --- | --- |
| CNC(=O)c1cc(C#N)cc(C)c1NC(=O)c1cc(Br)nn1-c1ncccc1Cl [Polymorph B, 3-bromo-1-(3-chloro-2-pyridinyl)-N-[4-cyano-2-methyl-6-[(methylamino)carbonyl]phenyl]-1H-pyrazole-5-carboxamide] | changes significantly |  |  |
| CNC(=O)c1cc(C#N)cc(C)c1NC(=O)c1cc(Br)nn1-c1ncccc1Cl [Polymorph A, 3-bromo-1-(3-chloro-2-pyridinyl)-N-[4-cyano-2-methyl-6-[(methylamino)carbonyl]phenyl]-1H-pyrazole-5-carboxamide] | does not gain or lose appreciable amounts of water | does not typically convert to Polymorph B | little solubility in water |
